The target of series [1] is JAK3: Recombinant human kinase domain (Homo sapiens, UniProt P52333). The experiment in a line: Determination of IC50 of Janus Kinase (JAK) inhibition, radioactive end-point 33P-ATP assay, JAK3. To be noted: 0.5 nM or 0.2 nM JAK3, ATP 1.5 uM, peptide 50 uM, 20 minutes; read-out: IC50 h-jak3-sf21-c. The series is classed as biochemical. The source says: (§1) Determination of IC50 of Janus Kinase (JAK) Inhibition: […]

Series [2] deals with JAK2: Recombinant human kinase domain (Homo sapiens, UniProt O60674). The experiment in a line: Determination of IC50 of Janus Kinase (JAK) inhibition, radioactive end-point 33P-ATP assay, JAK2. The format is biochemical. Particulars: 1 nM JAK2, ATP 1.5 uM, peptide 50 uM, 20 minutes; read-out: IC50 h-jak2-sf21-c.
Chain of JAK2: Recombinant human kinase domain (O60674 849-1124 limits assumed): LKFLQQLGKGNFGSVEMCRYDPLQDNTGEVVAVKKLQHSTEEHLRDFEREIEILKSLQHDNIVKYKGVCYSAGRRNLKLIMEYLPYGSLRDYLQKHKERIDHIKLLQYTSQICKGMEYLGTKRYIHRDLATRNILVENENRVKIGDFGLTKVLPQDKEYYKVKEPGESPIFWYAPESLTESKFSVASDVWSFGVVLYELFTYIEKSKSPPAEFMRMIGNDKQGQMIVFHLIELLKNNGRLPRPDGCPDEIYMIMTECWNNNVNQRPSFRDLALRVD
From the text: as §1

In patent US7902197B2, “Pyrrolopyrazine kinase inhibitors” (Roche Palo Alto LLC, priority 2008, dated 2011) one finds IC50 and melting point data, which are given here for five compounds.

Usually IC50 stands for the point on the concentration scale where inhibition reaches its midpoint. Usually melting point stands for the temperature, or range, at which the solid turns liquid.

Chain of JAK3: Recombinant human kinase domain (P52333 822-1111 limits assumed): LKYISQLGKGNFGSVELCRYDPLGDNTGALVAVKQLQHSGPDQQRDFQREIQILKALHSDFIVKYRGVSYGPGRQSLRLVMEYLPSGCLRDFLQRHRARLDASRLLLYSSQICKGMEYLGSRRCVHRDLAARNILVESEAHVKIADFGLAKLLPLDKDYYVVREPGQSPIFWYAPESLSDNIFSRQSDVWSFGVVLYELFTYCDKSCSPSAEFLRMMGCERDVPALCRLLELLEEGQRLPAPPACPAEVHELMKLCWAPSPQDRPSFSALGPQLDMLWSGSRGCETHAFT

Consider `CN1CCN(c2cccc(Nc3cnc4[nH]cc(C(=O)C(C)(C)C)c4n3)c2)CC1` [Compound I-35, 2,2-Dimethyl-1-{2-[3-(4-methyl-piperazin-1-yl)-phenylamino]-5H-pyrrolo[2,3-b]pyrazin-7-yl}-propan-1-one], for which the IC50 in series [1] worked out at 498 nM.
For `CC(C)(C)C(=O)c1cnc2[nH]cc(C(=O)C(C)(C)C)c2n1` [Compound I-2, 1-[7-(2,2-Dimethyl-propionyl)-5H-pyrrolo[2,3-b]pyrazin-2-yl]-2,2-dimethyl-propan-1-one], the melting point lay in the range of 188 to 198 °C.
On to `CN1CCN(c2ccc(Nc3cnc4[nH]cc(C(=O)C(C)(C)C)c4n3)cc2)CC1` [Compound I-34, 2,2-Dimethyl-1-{2-[4-(4-methyl-piperazin-1-yl)-phenylamino]-5H-pyrrolo[2,3-b]pyrazin-7-yl}-propan-1-one], for which the IC50 in series [1] is 471 nM.
The compound `CC(C)NC(=O)c1c[nH]c2ncc(N(C)C3CCCC3)nc12` [Compound I-1, 2-(Cyclopentyl-methyl-amino)-5H-pyrrolo[2,3-b]pyrazine-7-carboxylic acid isopropylamide] returned a melting point of 277 to 278 °C. Besides, the IC50 in series [1] was 59.2 nM. Further, the 50% inhibitory concentration (IC50) in series [2] was found to be 129 nM.
Consider `CC(C)(C)C(=O)c1c[nH]c2ncc(C(=O)NC3CCCC3)nc12` [Compound I-15, 7-(2,2-Dimethyl-propionyl)-5H-pyrrolo[2,3-b]pyrazine-2-carboxylic acid cyclopentylamide], for which the melting point was 237.9 to 241.5 °C.
